Results on seven molecules are retold here after BindingDB's records for patent US12208088 (Genentech, 2025).

The term Ki denotes the equilibrium dissociation constant of an inhibitor or competing ligand from its target. Read a high Ki as lower affinity.

Sequence of Mitogen-activated protein kinase kinase kinase kinase 1 (Q92918 whole entry): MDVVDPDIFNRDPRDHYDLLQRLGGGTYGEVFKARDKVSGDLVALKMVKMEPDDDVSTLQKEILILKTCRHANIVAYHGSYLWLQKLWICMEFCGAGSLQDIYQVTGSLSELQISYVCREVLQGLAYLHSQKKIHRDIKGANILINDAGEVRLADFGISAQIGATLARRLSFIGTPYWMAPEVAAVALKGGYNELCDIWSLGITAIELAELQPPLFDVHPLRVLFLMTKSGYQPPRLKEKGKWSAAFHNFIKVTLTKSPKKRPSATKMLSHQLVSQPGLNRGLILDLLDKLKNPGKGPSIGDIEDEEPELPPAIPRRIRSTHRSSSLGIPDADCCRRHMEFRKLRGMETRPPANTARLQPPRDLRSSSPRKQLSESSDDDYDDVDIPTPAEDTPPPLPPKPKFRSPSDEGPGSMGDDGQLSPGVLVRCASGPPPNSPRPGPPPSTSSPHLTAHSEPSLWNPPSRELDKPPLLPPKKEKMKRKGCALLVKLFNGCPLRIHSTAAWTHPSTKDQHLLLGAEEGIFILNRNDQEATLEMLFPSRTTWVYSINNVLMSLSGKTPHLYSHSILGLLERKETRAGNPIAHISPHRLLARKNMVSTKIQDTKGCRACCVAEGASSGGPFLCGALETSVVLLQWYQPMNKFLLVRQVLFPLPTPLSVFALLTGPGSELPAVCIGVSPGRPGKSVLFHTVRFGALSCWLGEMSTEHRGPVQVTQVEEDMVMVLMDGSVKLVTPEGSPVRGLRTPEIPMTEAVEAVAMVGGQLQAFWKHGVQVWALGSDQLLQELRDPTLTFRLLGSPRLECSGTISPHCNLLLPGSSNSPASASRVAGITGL

The experiment deals with Mitogen-activated protein kinase kinase kinase kinase 1 (Homo sapiens, UniProt Q92918). The experiment in a line: HPK1 Lantha Binding Assay. As for the experimental part:
For the binding assay, 4 ul 2×HPK1 and Eu-anti-GST antibody were added to each well of the assay plate using a Multidrop reagent dispenser. The solutions were incubated in a 23 C incubator for 1 h. To each well of the assay plate was added 4 ul 2× Tracer-222 using a Multidrop reagent dispenser. The solutions were again incubated in a 23 C incubator for 1 h. The results of the assay were read using an Envision plate reader with the following parameters: TR_FRET, 340 ex/615 and 665em; 100 usec Delay; and 200 usec integration.
The molecule `CC1CNC(=O)N1c1c(N)ccc(-c2cnc3c(c2Cl)C2(CC2)CN3)c1F` (configuration not stated) [US12208088, Compound 25] yielded a Ki of 43.9 nM.

As for `CC(=O)Nc1cc(C(=O)N(C)C)cc(-c2cnc3c(c2Cl)C2(CC2)CN3)c1` [US12208088, Compound 33], the affinity corresponds to a Ki of 771 nM.

Consider `CN(CC(C)(C)O)C(=O)c1c(N)ccc(-c2cnc3c(c2Cl)C2(CC2)CN3)c1F` [US12208088, Compound 35], for which the Ki came to 22.8 nM.

Take `O=C1NCCC1c1cccc(-c2cnc3c(c2)C2(CC2)CN3)c1F` (configuration not stated) [US12208088, Compound 92]: the Ki is 28.4 nM.

Take `CN(C)C(=O)c1c(N)ccc(-c2cnc3c(c2Cl)C2(CCC(Cn4cncn4)C2)CN3)c1F` (configuration not stated) [US12208088, Compound 129]: the Ki is 23.4 nM.

`CN(C)C(=O)c1ccc(-c2cnc3c(c2Cl)C2(CC=CC2)CN3)cc1Cl` [US12208088, Compound 192] yielded a Ki of 163 nM. This Ki lies about 7-fold higher than the previous one.

`N#CC1CCCCN1C(=O)c1cccc(-c2cnc3c(c2Cl)C2(CC=CC2)CN3)c1F` (configuration not stated) [US12208088, Compound 264] had a Ki of 11.5 nM.
